Assay results: paper PMC10584170, “Machine learning-based phenotypic imaging to characterise the targetable biology of Plasmodium falciparum male gametocytes for the development of transmission-blocking antimalarials” (PLOS Pathogens, 2023)
pIC50: −log10 of the molar value. Like-named read-outs stand apart in the source and are kept apart here.

Assays:
HepG2 cells = test: HepG2 cytotoxicity counter-screen; details: cytotoxic activity against HepG2 cells
[1] = tested on: P. falciparum female gametocytes; test: P. falciparum Dual Gamete Formation Assay (PfDGFA), female readout (Pfs25-positive female gametes); format: cell-based, Plasmodium falciparum NF54; details: for HitlevelF: number of replicates with >50% inhibition in the female readout; for Selectivity ratio F: HepG2 Tox50 versus female IC50; for pIC50: PfDGFA, 24 h incubation with gametocytes before induction, female gamete readout, read-out: Female IC50
Method in brief: (§1)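 NF54 mature gametocytes (d14), cpd 24 h 37°C hypoxic gas; trigger: xanthurenic acid ookinete medium + Cy3 anti-Pfs25, 4°C 4 min → 28°C 4 min. Male: exflagellation centres, brightfield x6. Female: Pfs25+ gametes, fluorescence, +24 h 28°C dark.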

[2] = tested on: P. falciparum male gametocytes; test: P. falciparum Dual Gamete Formation Assay (PfDGFA), male readout (exflagellation); format: cell-based, Plasmodium falciparum NF54; details: for HitlevelM: number of replicates with >50% inhibition in the male readout; for Selectivity Ratio M: HepG2 Tox50 versus male IC50; for pIC50: PfDGFA, 24 h incubation with gametocytes before induction, exflagellation readout, read-out: Male IC50
Method in brief: as §1

[3] = 2µM, 24h preincubation with gametocytes prior to induction of gametogenesis, average of replicates
[4] = 2µM, 24h preincubation with gametocytes prior to induction of gametogenesis, replicate R1
[5] = 2µM, 24h preincubation with gametocytes prior to induction of gametogenesis, replicate R3
[6] = 2µM, 24h preincubation with gametocytes prior to induction of gametogenesis, replicate R4
[7] = PfDGFA at 2µM, 24h preincubation with gametocytes, average of replicates
[8] = PfDGFA at 2µM, 24h preincubation with gametocytes, replicate R1
[9] = PfDGFA at 2µM, 24h preincubation with gametocytes, replicate R3
[10] = PfDGFA at 2µM, 24h preincubation with gametocytes, replicate R4
[11] = Plasmodium falciparum, PfDGFA at 2µM, 24h preincubation with gametocytes, average of replicates, read-out: Average inhibition female (%)
[12] = Plasmodium falciparum, PfDGFA at 2µM, 24h preincubation with gametocytes, replicate R1, read-out: % inhibition female (individual replicates) R1
[13] = Plasmodium falciparum, PfDGFA at 2µM, 24h preincubation with gametocytes, replicate R2, read-out: % inhibition female (individual replicates) R2
[14] = Plasmodium falciparum, PfDGFA at 2µM, 24h preincubation with gametocytes, replicate R3, read-out: % inhibition female (individual replicates) R3
[15] = Plasmodium falciparum, PfDGFA at 2µM, 24h preincubation with gametocytes, replicate R4, read-out: % inhibition female (individual replicates) R4
[16] = Plasmodium falciparum, PfDGFA at 2µM, 24h preincubation with gametocytes, average of replicates, read-out: Average inhibition male (%)
[17] = Plasmodium falciparum, PfDGFA at 2µM, 24h preincubation with gametocytes, replicate R1, read-out: % inhibition male (individual replicates) R1
[18] = Plasmodium falciparum, PfDGFA at 2µM, 24h preincubation with gametocytes, replicate R2, read-out: % inhibition male (individual replicates) R2
[19] = Plasmodium falciparum, PfDGFA at 2µM, 24h preincubation with gametocytes, replicate R3, read-out: % inhibition male (individual replicates) R3
[20] = Plasmodium falciparum, PfDGFA at 2µM, 24h preincubation with gametocytes, replicate R4, read-out: % inhibition male (individual replicates) R4
[21] = 2µM, 24h preincubation with gametocytes, average of replicates
[22] = 2µM, 24h preincubation with gametocytes, replicate R1
[23] = 2µM, 24h preincubation with gametocytes, replicate R3
[24] = 2µM, 24h preincubation with gametocytes, replicate R4

| SMILES | Tox50 (HepG2 cells) | Selectivity ratio F [1] | pIC50 [1] | Selectivity Ratio M [2] | pIC50 [2] | Average inhibition female (%) [1, 7] | % inhibition female (individual replicates) R1 [1, 8] | % inhibition female (individual replicates) R3 [1, 9] | % inhibition female (individual replicates) R4 [1, 10] | HitlevelF ([1]; 2µM) | Average inhibition male (%) [2, 7] | % inhibition male (individual replicates) R1 [2, 8] | % inhibition male (individual replicates) R3 [2, 9] | % inhibition male (individual replicates) R4 [2, 10] | HitlevelM ([2]; 2µM) | inhibition at 2 µM [1, 11] | inhibition at 2 µM [1, 12] | inhibition at 2 µM [1, 13] | inhibition at 2 µM [1, 14] | inhibition at 2 µM [1, 15] | further results |
| --- | --- | --- | --- | --- | --- | --- | --- | --- | --- | --- | --- | --- | --- | --- | --- | --- | --- | --- | --- | --- | --- |
| CCc1c(CCNCCCC(C)CCNCCc2ccc(OC)c(OC)c2CC)ccc(OC)c1OC.Cl (centres unmarked) [TCMDC-132065] | 3.92 µM | 0.73 | 5.27 | 2.01 | 5.71 |  |  |  |  |  |  |  |  |  |  |  |  |  |  |  | Average inhibition female (%) [1, 3]: 11.1%; % inhibition female (individual replicates) R1 [1, 4]: 14.0%; % inhibition female (individual replicates) R3 [1, 5]: -5.8%; % inhibition female (individual replicates) R4 [1, 6]: 27.9%; HitlevelF ([1]; 2µM, 24h preincubation): 0; Average inhibition male (%) [2, 3]: 50.4%; % inhibition male (individual replicates) R1 [2, 4]: 69.1%; % inhibition male (individual replicates) R3 [2, 5]: 65.3%; % inhibition male (individual replicates) R4 [2, 6]: 65.1%; HitlevelM ([2]; 2µM, 24h preincubation): 3 |
| COc1cccc(CCc2c(CCNCCCCCCNCCc3ccccc3)ccc(OC)c2OC)c1.Cl [TCMDC-132105] | 2.82 µM | 4.54 | 6.21 | 2.34 | 5.92 | 52.1% | 47.4% | 59.7% | 72.0% | 2 | 79.5% | 90.7% | 81.0% | 99.1% | 3 |  |  |  |  |  |  |
| COc1ccc(CNC2CCN(C)CC2)cc1-c1ccc(S(=O)(=O)NCc2ccccc2)s1.O=C(O)C(F)(F)F [TCMDC-132253] | 5.43 µM | 1.37 | 5.40 | 3.9 | 5.86 | 28.1% | 31.4% | 13.9% | 24.4% | 0 | 82.6% | 86.4% | 70.7% | 89.6% | 4 |  |  |  |  |  |  |
| COc1ccc(CNC2CCN(C)CC2)cc1-c1ccc(S(=O)(=O)NCc2ccccc2)c(F)c1.O=C(O)C(F)(F)F [TCMDC-132262] | 3.59 µM | 0.84 | 5.37 | 1.94 | 5.73 | 25.6% | 21.9% | 30.7% | 17.0% | 0 | 74.3% | 68.8% |  | 79.4% | 3 |  |  |  |  |  |  |
| O=C(c1ccc(-c2cnc3[nH]cc(-c4ccc(C(=O)N5CCOCC5)cc4)c3c2)cc1)N1CCOCC1 [TCMDC-132781] | 28.99 µM | 2.9 |  | 66.32 |  |  |  |  |  | 0 |  |  |  |  | 4 | 9.1% | 7.2% | 16.3% | 1.6% | 11.4% | pIC50 ([1]; Plasmodium falciparum): < 5.00; inhibition at 2 µM [2, 16]: 77%; inhibition at 2 µM [2, 17]: 90.7%; inhibition at 2 µM [2, 18]: 89.1%; inhibition at 2 µM [2, 19]: 77.8%; inhibition at 2 µM [2, 20]: 50.2%; pIC50 ([2]; Plasmodium falciparum): 6.36 |
| CNCCNCc1ccc(-c2ccc(-c3nc4cccc(C)c4[nH]3)cc2)cc1.O=C(O)C(F)(F)F [TCMDC-132837] | 13.18 µM | 1.52 | 5.06 | 7.9 | 5.78 | 30.6% | 20.0% | 47.7% | 20.5% | 0 | 81.2% | 79.2% | 67.7% | 94.2% | 4 |  |  |  |  |  |  |
| CNCCNCc1ccc(-c2ccc(-c3nc4cc(C(F)(F)F)ccc4[nH]3)s2)cc1.O=C(O)C(F)(F)F [TCMDC-132838] | 13.1 µM | 1.31 |  | 9.9 | 5.88 |  |  |  |  |  |  |  |  |  |  |  |  |  |  |  | Average inhibition female (%) [1, 21]: 23.9%; % inhibition female (individual replicates) R1 [1, 22]: 24.8%; % inhibition female (individual replicates) R3 [1, 23]: 17.6%; % inhibition female (individual replicates) R4 [1, 24]: 33.8%; Average inhibition male (%) [2, 21]: 96.4%; % inhibition male (individual replicates) R1 [2, 22]: 96.0%; % inhibition male (individual replicates) R3 [2, 23]: 93.3%; % inhibition male (individual replicates) R4 [2, 24]: 98.9% |
| FC(F)(F)c1ccc2[nH]c(-c3ccc(-c4cccc(CNCCN5CCNCC5)c4)cc3)nc2c1.O=C(O)C(F)(F)F [TCMDC-132864] | 20.55 µM | 3.99 |  | 12.52 |  |  |  |  |  | 0 |  |  |  |  | 4 | 20.5% | 25.8% | 24.6% | -15.8% | 47.4% | pIC50 ([1]; Plasmodium falciparum): 5.29; inhibition at 2 µM [2, 16]: 82.4%; inhibition at 2 µM [2, 17]: 79.2%; inhibition at 2 µM [2, 18]: 89.7%; inhibition at 2 µM [2, 19]: 65.9%; inhibition at 2 µM [2, 20]: 94.9%; pIC50 ([2]; Plasmodium falciparum): 5.79 |
| FC(F)(F)c1ccc2[nH]c(-c3ccc(-c4ccc(CNCCN5CCNCC5)cc4)cc3)nc2c1.O=C(O)C(F)(F)F [TCMDC-132865] | 13.76 µM | 2.26 |  | 9.44 |  |  |  |  |  | 0 |  |  |  |  | 3 | 29.2% | 27.7% | 31% | 31% | 27.1% | pIC50 ([1]; Plasmodium falciparum): 5.22; inhibition at 2 µM [2, 16]: 69.5%; inhibition at 2 µM [2, 17]: 60.9%; inhibition at 2 µM [2, 18]: 79.2%; inhibition at 2 µM [2, 19]: 39.1%; inhibition at 2 µM [2, 20]: 98.9%; pIC50 ([2]; Plasmodium falciparum): 5.84 |
